Assay results reported in US7910622B2, “Modulation of bacterial quorum sensing with synthetic ligands” (Wisconsin Alumni Research Foundation, priority 2007, dated 2011).

Target: T1, LuxR (Aliivibrio fischeri, UniProt P35327)
T1 construct: a Δ-luxI derivative of V. fischeri ES114, in which the native lux operon behaves as the bioluminescent reporter; endogenous in cells; host or cells: V. fischeri ES114 (Δ-luxI)
Assay: cell-based
Format: cell-based, Vibrio fischeri
Details: for V. fischeri-LuxR Inhibition [%]: 5 μM synthetic ligand against 5 μM OHHL; for V. fischeri-LuxR Inhibition [%] / inhibition at 5 µM: V. fischeri ES114 (Δ-luxI), normalized to OHHL; for IC50: LuxR IC50, determined against 5 μM OHHL; for inhibition at 5 µM: read-out: V. fischeri-LuxR Inhibition [%], 5 μM synthetic ligand against 5 μM OHHL
Procedure: Luminescence assays. For agonism assays, an appropriate amount of AHL stock solution was added into a 96-well plate. An overnight culture of E. coli or V. fischeri was diluted 1:10 with appropriate media (LB plus 10 μg/mL tetracycline for E. coli; LBS for V. fischeri). A 200-μL portion of the diluted culture was added to each well of the plate. Plates were grown for 4-8 h with shaking (200 rpm; 30° C. for E. coli and RT for V. fischeri). Luminescence was measured using a multilabel plate reader and normalized to cell density. […] All assays were performed in triplicate. Graphpad Prism software was used to calculate IC50 and EC50 values.
Vibrio fischeri assay procedures. […] An overnight culture of V. fischeri ES114 (WT, Δ-luxI or Δ-luxR) was diluted 1:10 with LBS medium. A-200 μL portion of the diluted culture was added to each well of the plate. Plates were grown at RT with shaking (200 rpm) until the OD600=0.35-0.4 (4-6 h). Luminescence then was measured and normalized to cell density per well. […] All assays were performed in triplicate. IC50 and EC50 values were calculated using GraphPad Prism software using a sigmoidal curve fit.
(§1) V. fischeri reporter gene assay protocols. […] An overnight culture of V. fischeri ES114 (D-luxI) was diluted 1:10 with LBS medium. A 200-μL portion of the diluted culture was added to each well of the multititer plate. Plates were grown at RT with shaking (200 rpm) until the OD600=0.35-0.4 (4-6 h). Luminescence then was measured and normalized to cell density per well.
(§2) Dose response reporter gene assays. […] IC50 and EC50 values were calculated using GraphPad Prism software (v. 4.0) using a sigmoidal curve fit.
as §1, with “(Δ-luxI)” for “(D-luxI)”, “A200 μL” for “A 200-μL”, “incubated” for “grown”, “RT” for “RT with shaking (200 rpm)”
as §2

T1 sequence (P35327 whole entry): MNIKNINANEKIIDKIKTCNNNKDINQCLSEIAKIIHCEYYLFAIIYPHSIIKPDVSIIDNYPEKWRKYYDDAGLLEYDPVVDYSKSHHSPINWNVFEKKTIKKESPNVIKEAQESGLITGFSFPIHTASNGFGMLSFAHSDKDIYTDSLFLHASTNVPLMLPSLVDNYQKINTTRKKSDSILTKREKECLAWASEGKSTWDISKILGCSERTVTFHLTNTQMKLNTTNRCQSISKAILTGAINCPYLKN

O=C(Cc1ccc(Br)cc1)N[C@@H]1CCOC1=O [D-5]
V. fischeri-LuxR Inhibition [%]: ca. 20%

O=C(Cc1ccc(O)cc1)N[C@H]1CCOC1=O [11w, 4-hydroxy PHL]
V. fischeri-LuxR Inhibition [%]: lowest inhibitory activities

CCCCCCCCCC(=O)CC(=O)N[C@H]1CCOC1=O [A8, N-(3-oxo-dodecanoyl)-L-homoserine lactone, reference compound]
IC50: 400 nM

O=C(CCCc1ccccc1)N[C@@H]1CCOC1=O [D-3]
V. fischeri-LuxR Inhibition [%]: ca. 20%

Nc1ccc(CC(=O)N[C@H]2CCOC2=O)cc1 [11v, 4-amino PHL]
V. fischeri-LuxR Inhibition [%]: lowest inhibitory activities

O=C(Cc1ccccc1)N[C@H]1CCOC1=O [11a]
V. fischeri-LuxR Inhibition [%]: abolished inhibitory activity

O=C(Cc1ccc(-c2ccccc2)cc1)N[C@H]1CCOC1=O [11q, 4-phenyl PHL]
inhibition at 5 µM: ~80%

O=C(Cc1ccc(C(F)(F)F)cc1)N[C@H]1CCOC1=O [11s, 4-trifluoromethyl PHL]
IC50: 600 nM
inhibition at 5 µM: ~80%
